The structures appear in SMILES notation.

This test deals with MDA-MB-435 TRAIL potentiation, ATPlite cytotoxicity, 24 h. Kind of test: PubChem AID 1773. Conditions: stronger effect = higher value.

`CSc1nc(-c2ccc(C)cc2)nc(C(Cl)Cl)n1`: the cytotoxicity by setting is: (at 5 µM) 50%; (compound 2.5 uM plus TRAIL 10, at 2.5 µM) 84%; (compound alone cytotoxicity, at 5 µM) -1%; (compound plus 100 ng/mL TRAIL, at 5 µM) 83%. Further, the cytotoxicity with 30 ng/mL TRAIL (at 5 µM) is 91%.

The values are drawn from PubChem BioAssay AID1773 (Sanford-Burnham Center for Chemical Genomics, 2009).
